The results in this text go back to US11541059B2, “Heterocyclic compounds and uses thereof” (Infinity Pharmaceuticals, Inc., priority 2014, dated 2023).

SMILES strings stand for the structures. Like-named read-outs stand apart in the source and are kept apart here.

For one data set, the target named is PI3K β (Homo sapiens (Human), UniProt P42338). Briefly: PI3-Kinase Promega ADP-Glo Max assay. It is filed as biochemical. For orientation: In ADP-Glo the light output rises with the ADP produced.
Data set [1] concerns the target PI3K-γ in RAW264.7 macrophages (Mus musculus (Mouse), UniProt Q9JHG7). Briefly: Raw264.7 p110 γ assay (phospho-AKT, C5a stimulated). The format is cell-based.
Description: Briefly, serum-starved RAW264.7 cells are stimulated with a known GPCR agonist C5a. […] Cells can be treated with test compounds prior to, simultaneously with, or subsequent to the stimulation by C5a. RAW 264.7 cells respond to the complement component fragment C5a through activation of the C5a receptor, and the C5a receptor activates macrophages and induces cell migration.
The next data set has as its target PI3K-δ in RAJI cells (Homo sapiens (Human), UniProt O00329). Briefly: RAJI p110 δ assay (phospho-AKT, anti-human IgM stimulated). The format is cell-based.
Another data set addresses PI3K γ (Homo sapiens (Human), UniProt P48736). Briefly: PI3-Kinase Promega ADP-Glo Max assay. It is filed as biochemical.
For the next data set, the target named is PI3K δ (Homo sapiens (Human), UniProt O00329). Description: PI3-Kinase Promega ADP-Glo Max assay. The format is biochemical.
Another data set has as its target PI3K α (Homo sapiens (Human), UniProt P42336). Briefly: PI3-Kinase Promega ADP-Glo Max assay. The format is biochemical.
A short description of data set [2]: Pharmacokinetics of Compound 88, oral. It is filed as in vivo, mouse. The conditions noted are these: female C57 mice. On the procedure: A similar study was carried out using Compound 88. […] Below is a table that details the results for Compound 88: […]
The subject of data set [3] is CXCL12 induced p-AKT in M1 polarized macrophage. Briefly: CXCL12-induced p-AKT induction assay, M1 polarized macrophages. The format is cell-based, mouse. An excerpt: (§1) Long bones from young C57B6 mice were harvested and bone marrow was extruded by gentle lavage of the bone marrow cavities with a 28 guage needle. Red blood cells were removed using red blood cell lysis buffer (Sigma). Bone marrow cells were differentiated to macrophages using MCSF for 6 days (RPMI and 20% FCS) with one media change (with removal of all non-adherent cells) at day 3. Macrophages were polarized into M0 (MCSF), M1 (MCSF, IFNγ, and LPS for 1 day), or M2 (MCSF, IL4 for 2 days).
(§2) CXCL12-induced p-AKT induction assay: Polarized macrophages were lifted with Acutase, and plated at 0.5M cells per well (0.5 ml) in a deep well (2 ml) non adherant plate in polarization media for 1 hour. […] CXCL12 was added, and the cells were mixed on a plate shaker for 2 minutes. 1 ml of 37 degree FACS Lyse/fix buffer (BD bioscience) was added and the plate was mixed for 1 minute. The plates were spun and decanted and frozen at −80° C. Phospho AKT staining with anti Phospho AKT 473 PERCP labeled (Cell Signaling Technologies) was performed and measured by flow cytometry. Total cell MFI was used to calculate the effect of tested compound on CXCL12 induction of phospho AKT.

In data set [4] the test system is CXCL12 induced p-AKT in M2 polarized macrophage. Description: CXCL12-induced p-AKT induction assay, M2 polarized macrophages. The format is cell-based, mouse.
Description: as §1, §2

Data set [5] in a line: Oral PK in the rat LPS studies (free plasma concentration). It is filed as in vivo. The note with it: p.o. 0.2 mg/kg. The text has this:
(§3) This study also includes assessment of the exposure to the compounds in plasma and lung tissues.

A further data set has as its system human T cells. Description: Concanavalin A-induced model for activation of human T cells (IFN-γ). The format is cell-based. The conditions noted are these: isoform selective concentrations.
In data set [6] the test system is LPS induced neutrophil influx in BALF. Description: LPS-induced neutrophilia, oral administration. The format is in vivo. The note with it: rat, p.o., 4 hours post-LPS challenge.
Description: as §3

In the next data set the test system is LLC tumor. Briefly: LLC tumor brei model with or without cyclophosphamide. The note with it: BB 15 mg/kg QD PO; cyclophosphamide 50 mg/kg EOD IP, FIG. 48. The format is in vivo, mouse.

PI3K γ, sequence (P48736 whole entry): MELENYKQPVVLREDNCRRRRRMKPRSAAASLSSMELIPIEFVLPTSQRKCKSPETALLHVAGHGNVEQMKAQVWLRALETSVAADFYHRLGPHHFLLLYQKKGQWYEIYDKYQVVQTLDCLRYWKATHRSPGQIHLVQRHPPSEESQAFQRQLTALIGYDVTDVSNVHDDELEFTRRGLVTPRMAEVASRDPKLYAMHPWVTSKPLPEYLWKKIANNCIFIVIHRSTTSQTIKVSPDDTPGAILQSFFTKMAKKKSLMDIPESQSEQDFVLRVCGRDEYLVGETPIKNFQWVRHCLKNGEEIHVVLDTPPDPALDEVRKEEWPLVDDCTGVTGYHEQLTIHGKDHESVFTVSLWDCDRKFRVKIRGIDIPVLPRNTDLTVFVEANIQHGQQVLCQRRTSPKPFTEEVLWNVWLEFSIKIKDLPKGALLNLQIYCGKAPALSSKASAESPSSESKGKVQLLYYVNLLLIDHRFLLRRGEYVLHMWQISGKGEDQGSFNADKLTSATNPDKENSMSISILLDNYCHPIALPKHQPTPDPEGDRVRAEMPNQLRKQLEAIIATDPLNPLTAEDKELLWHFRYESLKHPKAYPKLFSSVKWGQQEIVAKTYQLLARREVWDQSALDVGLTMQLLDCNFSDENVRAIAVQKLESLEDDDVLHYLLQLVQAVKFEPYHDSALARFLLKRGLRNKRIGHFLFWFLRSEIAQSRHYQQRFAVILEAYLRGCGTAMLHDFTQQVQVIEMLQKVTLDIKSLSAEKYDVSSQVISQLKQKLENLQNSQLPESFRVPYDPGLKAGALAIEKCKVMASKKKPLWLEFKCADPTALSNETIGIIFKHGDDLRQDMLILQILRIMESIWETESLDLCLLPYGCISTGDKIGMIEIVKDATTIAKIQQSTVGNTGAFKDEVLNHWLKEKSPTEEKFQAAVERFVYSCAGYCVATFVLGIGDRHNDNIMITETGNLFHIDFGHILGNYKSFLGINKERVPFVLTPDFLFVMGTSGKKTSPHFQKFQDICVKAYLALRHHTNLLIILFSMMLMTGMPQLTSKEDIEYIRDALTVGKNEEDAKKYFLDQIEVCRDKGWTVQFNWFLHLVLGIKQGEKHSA
PI3K-γ in RAW264.7 macrophages, sequence (Q9JHG7 whole entry): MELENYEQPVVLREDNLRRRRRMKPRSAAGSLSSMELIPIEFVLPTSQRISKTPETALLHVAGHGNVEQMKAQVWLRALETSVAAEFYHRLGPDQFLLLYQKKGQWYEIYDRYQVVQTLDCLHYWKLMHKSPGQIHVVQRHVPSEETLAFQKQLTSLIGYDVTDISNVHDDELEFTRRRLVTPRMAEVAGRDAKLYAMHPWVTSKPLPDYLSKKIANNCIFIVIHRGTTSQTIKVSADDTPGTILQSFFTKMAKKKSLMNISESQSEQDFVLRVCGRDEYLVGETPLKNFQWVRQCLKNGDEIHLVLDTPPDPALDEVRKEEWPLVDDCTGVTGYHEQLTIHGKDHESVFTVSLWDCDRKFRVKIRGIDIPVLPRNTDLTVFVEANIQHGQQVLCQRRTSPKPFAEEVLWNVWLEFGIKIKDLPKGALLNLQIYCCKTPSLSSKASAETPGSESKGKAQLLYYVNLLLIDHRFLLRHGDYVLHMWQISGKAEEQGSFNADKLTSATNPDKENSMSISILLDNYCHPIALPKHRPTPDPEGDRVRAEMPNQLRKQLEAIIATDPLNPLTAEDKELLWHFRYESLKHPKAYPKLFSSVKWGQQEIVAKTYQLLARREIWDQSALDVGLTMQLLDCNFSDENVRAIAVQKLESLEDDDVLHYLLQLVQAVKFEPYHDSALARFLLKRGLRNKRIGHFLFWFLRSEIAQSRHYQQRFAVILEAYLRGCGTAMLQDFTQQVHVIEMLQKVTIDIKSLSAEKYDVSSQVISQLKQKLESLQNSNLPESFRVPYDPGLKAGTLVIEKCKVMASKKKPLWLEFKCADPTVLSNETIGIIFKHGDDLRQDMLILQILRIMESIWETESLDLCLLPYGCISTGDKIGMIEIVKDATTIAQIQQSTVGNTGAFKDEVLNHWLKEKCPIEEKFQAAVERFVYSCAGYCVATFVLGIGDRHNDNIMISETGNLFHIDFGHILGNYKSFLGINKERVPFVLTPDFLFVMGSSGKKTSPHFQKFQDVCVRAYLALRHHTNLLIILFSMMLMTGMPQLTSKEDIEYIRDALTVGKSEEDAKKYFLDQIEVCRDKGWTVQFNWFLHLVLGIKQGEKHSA
PI3K-δ in RAJI cells, sequence (O00329 whole entry): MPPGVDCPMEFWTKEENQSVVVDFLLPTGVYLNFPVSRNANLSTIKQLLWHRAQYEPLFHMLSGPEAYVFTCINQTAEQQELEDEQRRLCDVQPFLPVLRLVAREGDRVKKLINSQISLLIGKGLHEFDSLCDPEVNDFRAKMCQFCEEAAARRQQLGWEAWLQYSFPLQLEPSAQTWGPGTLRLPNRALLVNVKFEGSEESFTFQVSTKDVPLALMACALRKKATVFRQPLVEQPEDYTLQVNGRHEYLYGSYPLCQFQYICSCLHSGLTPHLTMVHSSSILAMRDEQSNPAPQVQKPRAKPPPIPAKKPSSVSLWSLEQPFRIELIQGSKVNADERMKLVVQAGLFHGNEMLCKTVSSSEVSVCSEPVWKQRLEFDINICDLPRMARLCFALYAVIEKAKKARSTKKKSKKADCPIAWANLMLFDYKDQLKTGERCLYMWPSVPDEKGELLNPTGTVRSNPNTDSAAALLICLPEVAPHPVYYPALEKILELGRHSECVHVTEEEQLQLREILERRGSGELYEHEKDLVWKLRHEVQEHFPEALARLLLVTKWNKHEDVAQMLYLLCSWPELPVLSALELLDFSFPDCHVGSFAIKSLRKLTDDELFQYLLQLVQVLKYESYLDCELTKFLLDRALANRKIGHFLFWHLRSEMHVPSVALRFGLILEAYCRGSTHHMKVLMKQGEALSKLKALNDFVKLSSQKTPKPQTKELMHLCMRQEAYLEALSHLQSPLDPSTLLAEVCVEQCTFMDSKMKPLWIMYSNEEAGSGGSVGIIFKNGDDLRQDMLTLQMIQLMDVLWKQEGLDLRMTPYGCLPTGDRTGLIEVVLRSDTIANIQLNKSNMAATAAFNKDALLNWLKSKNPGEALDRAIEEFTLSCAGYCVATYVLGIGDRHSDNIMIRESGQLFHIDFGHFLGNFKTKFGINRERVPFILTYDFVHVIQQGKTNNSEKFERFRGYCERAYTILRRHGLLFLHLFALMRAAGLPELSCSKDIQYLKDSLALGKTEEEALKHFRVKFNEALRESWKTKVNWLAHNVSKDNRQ
PI3K-δ in RAJI cells, sequence (P27986 whole entry partner): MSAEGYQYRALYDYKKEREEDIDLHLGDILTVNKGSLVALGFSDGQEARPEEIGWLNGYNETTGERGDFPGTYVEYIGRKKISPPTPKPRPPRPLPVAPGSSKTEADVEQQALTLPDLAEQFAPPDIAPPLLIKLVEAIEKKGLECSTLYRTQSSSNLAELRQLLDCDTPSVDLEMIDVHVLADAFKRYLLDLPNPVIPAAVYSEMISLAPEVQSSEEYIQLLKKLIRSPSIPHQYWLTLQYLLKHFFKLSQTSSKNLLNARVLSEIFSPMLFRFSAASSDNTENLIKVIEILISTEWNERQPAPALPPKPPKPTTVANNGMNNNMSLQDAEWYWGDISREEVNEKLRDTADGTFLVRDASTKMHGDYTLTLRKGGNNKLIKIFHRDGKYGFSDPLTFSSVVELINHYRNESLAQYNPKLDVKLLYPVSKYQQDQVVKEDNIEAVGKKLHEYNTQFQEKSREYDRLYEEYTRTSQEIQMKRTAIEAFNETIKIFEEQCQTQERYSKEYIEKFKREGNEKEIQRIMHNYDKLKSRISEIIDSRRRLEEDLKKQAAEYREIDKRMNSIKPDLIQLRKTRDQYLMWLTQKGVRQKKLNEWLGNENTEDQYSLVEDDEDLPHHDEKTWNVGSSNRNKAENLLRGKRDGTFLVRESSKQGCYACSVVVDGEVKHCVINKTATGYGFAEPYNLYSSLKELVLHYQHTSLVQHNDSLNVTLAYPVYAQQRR
PI3K δ, sequence (O00329 whole entry): as the sequence (O00329 whole entry) above
PI3K δ, sequence (P27986 whole entry partner): as the sequence (P27986 whole entry partner) above
Description for LLC tumor: In this experiment, treatment began when tumors reached approx. 150 mm^3—around day 12. Caliper and xenogen images were monitored. Treatment groups n=13-15/group. […] Samples for FACs analysis were collected on day 23 post implant. Using FACS, cells were assayed for the level of CD11b and Gr-1.
Description for PI3K α: (§4) Promega ADP-Glo Max assay kit (Cat. No. V7002) was utilized to determine IC50 values for α, β, δ and γ isoforms of human Class I PI3 kinases (Millipore). […] Reactions were incubated at room temperature for 2 hours followed by addition of 25 uL of stop solution. After a 40-minute incubation at room temperature, 50 uL of Promega detection mix was added followed by incubation for 1 hour at room temperature. Plates were then read on Envision plate reader in luminescence mode. Data was converted to % inhibition using the following equation below:
(§5) [formula] where S is the sample luminescence, Pos is a positive control without added PI3K, Neg is the negative control without added compound. Data was then plotted as % inhibition vs compound concentration.
Description for PI3K β: as §4, §5
Description for PI3K γ: as §4, §5
Description for PI3K δ: as §4, §5
Description for PI3K-δ in RAJI cells: Reduction of phospho-AKT is indicative of compounds that may inhibit B-cell proliferation and function in certain diseases.
Certain compounds provided herein were tested in RAJI cell model using procedures as described above.

As usually defined, the IC50 is the concentration that gives 50% inhibition. With `C[C@H](NC(=O)c1c(N)nn2cccnc12)c1nc2cccc(C#CC(C)(C)C)c2c(=O)n1-c1ccccc1` [Compound 3], the IC50 on PI3K β lay within 5 to 10 µM; in data set [1] (phospho-AKT), 50 to 100 nM; at PI3K-δ in RAJI cells, 1 to 10 µM; against PI3K γ, 1000 to 5000 nM; against PI3K δ, 5 to 10 µM; against PI3K α it was 5 to 10 µM. In addition, the “RAJI δ/Raw264.7 γ IC50 (selectivity)” value in [1] is listed as “X (key: V = 0.1 to 1; W = > 1 to <10; X = 10 to <50; Y = 50 to <850)”. The “PI3K δ/PI3K γ IC50 (selectivity)” value on PI3K γ (ratio of biochemical IC50s) is “W (W = > 1 to <10)”.

`C[C@H](NC(=O)c1c(N)nn2cccnc12)c1cc2cccc(C#CC3CC3)c2c(=O)n1-c1ccccc1` [Compound 9]: in [1], the “RAJI δ/Raw264.7 γ IC50 (selectivity)” value is recorded as “Y (key: V = 0.1 to 1; W = > 1 to <10; X = 10 to <50; Y = 50 to <850)”. For the same compound, the “PI3K δ/PI3K γ IC50 (selectivity)” value on PI3K γ is listed as “X (key: V = 0.1 to 1; W = > 1 to <10; X = 10 to <50; Y = 50 to <850)”.

As to `Cc1cnc(C(=O)N[C@@H](C)c2cc3cccc(C#Cc4cnn(C)c4)c3c(=O)n2-c2ccccc2)c(N)n1` [Compound 68], the “RAJI δ/Raw264.7 γ IC50 (selectivity)” value in data set [1] (ratio of cellular IC50s) is on record as “W (W = > 1 to <10)”. For the same compound, the “PI3K δ/PI3K γ IC50 (selectivity)” value on PI3K γ (ratio of biochemical IC50s) is “W (W = > 1 to <10)”.

For the compound `C/C=C/c1cccc2cc([C@H](C)NC(=O)c3c(N)nn4cccnc34)n(-c3ccccc3)c(=O)c12` [Compound 70], the “RAJI δ/Raw264.7 γ IC50 (selectivity)” value in data set [1] is reported as “X (key: V = 0.1 to 1; W = > 1 to <10; X = 10 to <50; Y = 50 to <850)”. On PI3K γ, the “PI3K δ/PI3K γ IC50 (selectivity)” value is recorded as “X (key: V = 0.1 to 1; W = > 1 to <10; X = 10 to <50; Y = 50 to <850)”.

As to `Cc1c(C#Cc2cccc3nc([C@H](C)NC(=O)c4c(N)nn5cccnc45)n(-c4ccccc4)c(=O)c23)cnn1C` [Compound 88, (S)-2-amino-N-(1-(5-((1,5-dimethyl-1H-pyrazol-4-yl)ethynyl)-4-oxo-3-phenyl-3,4-dihydroquinazolin-2-yl)ethyl)pyrazolo[1,5-a]pyrimidine-3-carboxamide], the Stability in serum result in [2] is on record as “good stability in serum”.

For `CC(C)n1c([C@H](C)Nc2ncnc(N)c2C#N)cc2cccc(-c3ccc(=O)n(C)c3)c2c1=O` [Compound AA], the “Inhibition of CXCL12-induced p-AKT” value in data set [3] and in data set [4] was “did not significantly inhibit” each time. In data set [5] (approximately 4 hours post LPS challenge), the “Free Plasma Conc (nM) […]” value is given as “BLQ”. Moreover, in data set [5] (at time of LPS challenge), the “Free Plasma Conc (nM) 1.5 h” value is “BLQ”. Further, the “effect on IFN-γ” value in the data set on human T cells is “highly selective inhibitor”. Moreover, the “Neutrophil in bronchoalveolar lavage fluid (BALF)” value in data set [6] is “reduced neutrophil”.

Regarding `O=P1(N(CCCl)CCCl)NCCCO1` (stereo not shown) [cyclophosphamide, reference compound], the “Tumor growth, LLC tumor brei model” value in the data set on LLC tumor was “reduced tumor growth by about the same amount”.
